These results are taken from ChEMBL document CHEMBL1201862, “PubChem BioAssay data set” (2004).

For assay [1], the target named is Acyl-homoserine lactone acylase PvdQ (Pseudomonas aeruginosa (strain LESB58), UniProt Q9I194). The assay is described as follows: P. aeruginosa PvdQ acylase inhibitors, dose response, biochemical, fluorescence, plate reader and imaging, cherry-picks (AID 493231).
Assay [2] deals with Lysosomal acid glucosylceramidase (Homo sapiens, UniProt P04062). Kind of assay: Dose response cell-based high throughput screening assay to identify enhancers of beta-glucosidase activity. [Related pubchem assays: 784 ]. The assay is classed as functional.
Lysosomal acid glucosylceramidase, sequence (P04062 whole entry): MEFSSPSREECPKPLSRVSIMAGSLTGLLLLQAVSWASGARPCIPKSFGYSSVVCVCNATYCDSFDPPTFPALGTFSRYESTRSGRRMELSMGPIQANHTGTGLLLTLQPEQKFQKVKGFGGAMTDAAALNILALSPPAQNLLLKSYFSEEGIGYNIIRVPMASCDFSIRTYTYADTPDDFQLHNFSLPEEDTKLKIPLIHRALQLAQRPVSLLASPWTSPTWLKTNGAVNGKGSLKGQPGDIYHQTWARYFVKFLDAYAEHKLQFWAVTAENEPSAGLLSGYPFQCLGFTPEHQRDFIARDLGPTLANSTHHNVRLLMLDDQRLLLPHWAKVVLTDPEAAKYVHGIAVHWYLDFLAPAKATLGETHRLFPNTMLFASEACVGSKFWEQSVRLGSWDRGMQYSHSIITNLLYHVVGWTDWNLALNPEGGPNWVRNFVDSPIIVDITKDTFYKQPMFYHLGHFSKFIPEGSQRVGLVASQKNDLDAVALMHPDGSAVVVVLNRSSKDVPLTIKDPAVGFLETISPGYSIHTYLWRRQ
The target of assay [3] is Beta-galactosidase (Escherichia coli, UniProt Q8VNN2). The assay is described as follows: beta-galactosidase enzyme inhibitors and activators, dose response, artefact control for CCR6 antagonist project, biochemical, E. coli enzyme, set 3 (AID 504712). The assay is classed as functional.
Beta-galactosidase, sequence (Q8VNN2 whole entry): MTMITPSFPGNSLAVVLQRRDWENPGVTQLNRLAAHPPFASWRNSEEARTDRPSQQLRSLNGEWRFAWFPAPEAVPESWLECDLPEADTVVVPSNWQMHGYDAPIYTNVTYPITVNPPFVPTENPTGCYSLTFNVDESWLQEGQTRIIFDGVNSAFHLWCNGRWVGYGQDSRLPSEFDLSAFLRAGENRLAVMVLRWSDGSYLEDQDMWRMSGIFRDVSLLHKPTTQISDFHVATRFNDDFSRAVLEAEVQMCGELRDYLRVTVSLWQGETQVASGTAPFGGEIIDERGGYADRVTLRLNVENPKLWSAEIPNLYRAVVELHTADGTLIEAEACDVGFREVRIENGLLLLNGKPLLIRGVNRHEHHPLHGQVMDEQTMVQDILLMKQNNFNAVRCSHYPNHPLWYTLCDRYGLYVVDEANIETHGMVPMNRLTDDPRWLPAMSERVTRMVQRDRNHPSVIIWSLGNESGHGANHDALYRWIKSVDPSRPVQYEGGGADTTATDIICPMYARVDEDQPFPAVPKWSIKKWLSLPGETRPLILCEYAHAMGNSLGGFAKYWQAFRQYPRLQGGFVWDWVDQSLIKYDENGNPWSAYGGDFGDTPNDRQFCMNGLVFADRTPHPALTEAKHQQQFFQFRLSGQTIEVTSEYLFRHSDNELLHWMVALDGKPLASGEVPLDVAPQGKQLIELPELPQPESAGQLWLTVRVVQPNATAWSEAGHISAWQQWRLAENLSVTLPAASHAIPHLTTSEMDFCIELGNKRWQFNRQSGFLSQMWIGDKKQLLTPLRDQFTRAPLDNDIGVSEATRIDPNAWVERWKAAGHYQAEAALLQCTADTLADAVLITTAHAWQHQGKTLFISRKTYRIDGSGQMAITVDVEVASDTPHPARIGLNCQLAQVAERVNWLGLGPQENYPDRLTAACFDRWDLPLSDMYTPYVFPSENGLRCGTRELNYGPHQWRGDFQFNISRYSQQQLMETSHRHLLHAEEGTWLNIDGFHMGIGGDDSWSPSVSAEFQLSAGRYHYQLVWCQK
Assay [4] concerns the target T1, C-C chemokine receptor type 6 (Homo sapiens, UniProt P51684).
T1 sequence (P51684 whole entry): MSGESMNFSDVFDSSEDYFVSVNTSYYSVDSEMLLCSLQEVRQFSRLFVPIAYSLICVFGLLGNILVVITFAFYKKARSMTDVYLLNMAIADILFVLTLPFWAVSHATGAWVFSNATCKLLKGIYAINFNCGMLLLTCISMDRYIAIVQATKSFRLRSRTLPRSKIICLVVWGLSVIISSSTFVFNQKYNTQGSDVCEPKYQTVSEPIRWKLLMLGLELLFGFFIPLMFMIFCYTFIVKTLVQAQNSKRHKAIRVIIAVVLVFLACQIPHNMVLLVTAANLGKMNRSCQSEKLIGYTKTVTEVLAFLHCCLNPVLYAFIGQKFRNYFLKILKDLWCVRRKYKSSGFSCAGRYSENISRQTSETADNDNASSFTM
The assay is described as follows: CCR6 receptor antagonists, dose response, cell-based, luminescent beta-arrestin readout (AID 504728). Format: functional.

The target in assay [5] is T2, Insulin-degrading enzyme (Homo sapiens, UniProt P14735).
T2 sequence (P14735 whole entry): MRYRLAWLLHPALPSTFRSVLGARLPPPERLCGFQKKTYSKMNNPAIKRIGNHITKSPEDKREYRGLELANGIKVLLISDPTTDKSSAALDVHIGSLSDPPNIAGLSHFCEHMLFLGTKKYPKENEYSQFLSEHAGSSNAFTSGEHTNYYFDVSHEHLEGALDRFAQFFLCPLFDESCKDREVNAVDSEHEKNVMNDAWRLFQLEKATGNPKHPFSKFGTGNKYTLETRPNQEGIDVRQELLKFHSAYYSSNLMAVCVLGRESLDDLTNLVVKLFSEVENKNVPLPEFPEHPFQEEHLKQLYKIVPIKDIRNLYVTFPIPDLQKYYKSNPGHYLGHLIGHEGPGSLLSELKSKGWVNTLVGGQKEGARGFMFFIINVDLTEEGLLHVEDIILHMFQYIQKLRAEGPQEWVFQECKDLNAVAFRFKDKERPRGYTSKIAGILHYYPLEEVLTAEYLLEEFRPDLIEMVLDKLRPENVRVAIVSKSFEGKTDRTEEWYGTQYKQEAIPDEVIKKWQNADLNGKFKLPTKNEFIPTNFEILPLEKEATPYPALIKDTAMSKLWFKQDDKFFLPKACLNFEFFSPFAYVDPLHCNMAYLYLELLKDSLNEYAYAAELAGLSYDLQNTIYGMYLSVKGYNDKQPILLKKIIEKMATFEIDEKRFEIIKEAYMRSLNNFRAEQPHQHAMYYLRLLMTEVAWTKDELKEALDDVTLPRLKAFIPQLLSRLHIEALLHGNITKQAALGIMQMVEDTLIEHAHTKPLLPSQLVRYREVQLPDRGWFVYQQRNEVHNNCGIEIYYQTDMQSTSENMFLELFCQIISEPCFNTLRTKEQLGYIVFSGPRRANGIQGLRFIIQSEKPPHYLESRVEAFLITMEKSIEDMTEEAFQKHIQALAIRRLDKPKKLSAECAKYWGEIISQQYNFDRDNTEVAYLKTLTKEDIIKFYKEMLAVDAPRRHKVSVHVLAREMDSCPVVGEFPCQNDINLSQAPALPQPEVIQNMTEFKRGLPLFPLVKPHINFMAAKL
Kind of assay: Dose Response: Fluorescence polarization-based cell-based high throughput dose response assay for inhibitors of insulin-degrading enzyme (IDE). [Related pubchem assays: 434962 (Primary screen (IDE inhibitors in singlicate)), 449730 (Counterscreen (Cytotoxicity in triplicate)), 435028 (Confirmation (IDE inhibitors in triplicate)), 434984 (Summary …. The assay is classed as functional.

In assay [6] the target is T3, Short transient receptor potential channel 4 (Mus musculus, UniProt Q9QUQ5).
T3 sequence (Q9QUQ5 whole entry): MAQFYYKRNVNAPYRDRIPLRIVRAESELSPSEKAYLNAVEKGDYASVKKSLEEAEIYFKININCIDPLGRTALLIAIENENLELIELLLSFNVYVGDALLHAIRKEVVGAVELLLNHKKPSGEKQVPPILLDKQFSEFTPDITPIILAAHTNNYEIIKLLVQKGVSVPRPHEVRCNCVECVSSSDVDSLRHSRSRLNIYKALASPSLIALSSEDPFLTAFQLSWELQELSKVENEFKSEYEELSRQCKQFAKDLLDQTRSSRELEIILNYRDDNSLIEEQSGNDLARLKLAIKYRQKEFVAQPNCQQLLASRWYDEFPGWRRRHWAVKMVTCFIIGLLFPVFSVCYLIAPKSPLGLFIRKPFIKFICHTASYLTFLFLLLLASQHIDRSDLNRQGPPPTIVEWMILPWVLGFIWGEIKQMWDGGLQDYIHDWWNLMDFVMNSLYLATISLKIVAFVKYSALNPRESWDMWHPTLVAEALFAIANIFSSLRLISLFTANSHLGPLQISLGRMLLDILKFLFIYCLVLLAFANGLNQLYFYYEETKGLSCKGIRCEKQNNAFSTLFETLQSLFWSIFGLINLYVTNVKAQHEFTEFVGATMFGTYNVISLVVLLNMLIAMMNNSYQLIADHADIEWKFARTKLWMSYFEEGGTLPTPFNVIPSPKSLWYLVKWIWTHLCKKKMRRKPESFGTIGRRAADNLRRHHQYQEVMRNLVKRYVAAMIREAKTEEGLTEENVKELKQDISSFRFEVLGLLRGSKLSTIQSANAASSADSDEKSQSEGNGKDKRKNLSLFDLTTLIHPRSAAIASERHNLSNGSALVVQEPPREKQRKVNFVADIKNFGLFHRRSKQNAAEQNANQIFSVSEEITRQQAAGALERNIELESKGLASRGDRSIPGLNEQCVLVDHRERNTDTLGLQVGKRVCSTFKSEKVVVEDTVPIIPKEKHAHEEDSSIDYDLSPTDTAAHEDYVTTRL
The assay is described as follows: mouse TRPC4 channel inhibitors, dose response, cell-based, HEK293 TRPC4/mu-opioid, Fluo-4 calcium (AID 434942).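 Note: potency of inhibitors blocking the TRPC4 calcium response.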 Format: functional.

A short description of assay [7]: Counterscreen for IDE inhibitors: Luminescence-based cell-based high throughput dose response assay to identify compounds that are cytotoxic to HEK cells. [Related pubchem assays: 434962 (Primary screen (IDE inhibitors in singlicate)), 449730 (Counterscreen (Cytotoxicity in triplicate)), 435028 (Confirmation (IDE inhibitors in triplicate)) …. The settings on record: HEK293. The assay is classed as functional. (The purpose of a counterscreen is to sort out artefacts and off-target activity.)

A short description of assay [8]: HEp-2 cell cytotoxicity, dose response, cytotoxicity control for RSV inhibitor project, HTS (AID 2410). The settings on record: human respiratory syncytial virus. The assay is classed as functional.
A short description of assay [9]: growth suppression of PTEN-null colon cells, dose response, cell-based, HCT116 PTEN knockout (AID 1047).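 Note: HCT116 colon tumor cells with PTEN knocked out; cells exposed to compound for 60 hours before readout; potency for loss of cell viability measured by luminescence.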 The assay is classed as functional.
Assay [10] in a line: growth suppression of beta-catenin-knockout colon cells, dose response, cell-based, HCT116, human colon tumor (AID 1045).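 Note: HCT116 colon tumor cells with beta catenin knocked out; cells exposed to compound for 60 hours.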 The assay is classed as functional.
A short description of assay [11]: Luminescence Cell-Based Dose Retest to Confirm Inhibitors of Cancer Stem Cells. [Related pubchem assays (depositor defined):AID2717, AID2721]. The assay is classed as functional. The settings on record: Homo sapiens.
A short description of assay [12]: cells.
The nature of assay [13]: A Cell Based Assay for the Identification of Probe candidate Compounds with Anti- Venezuelan Equine Encephalitis virus. [Related pubchem assays: 2409, 2419, 1621, 2238, 2405, 2024, 2065, 2402, 2414, 1635, 1650, 2244 ]. Format: functional.
Assay [14] relates to Vero. Kind of assay: Vero E6 cell cytotoxicity, SAR follow-up, cytotoxicity control for West Nile virus antiviral project, synthesized analogs (AID 2244). The assay is classed as functional. The settings on record: Chlorocebus sabaeus.
Assay [15] has as its system Vero. Kind of assay: cytotoxicity of synthesized analogs in Vero cells, SAR follow-up, cytotoxicity control for West Nile virus antiviral project, cell-based, set II (AID 2402). Format: functional. The settings on record: Chlorocebus sabaeus.

The source made the active and inactive calls.

Acyl-homoserine lactone acylase PvdQ, sequence (Q9I194 24-193 limits assumed): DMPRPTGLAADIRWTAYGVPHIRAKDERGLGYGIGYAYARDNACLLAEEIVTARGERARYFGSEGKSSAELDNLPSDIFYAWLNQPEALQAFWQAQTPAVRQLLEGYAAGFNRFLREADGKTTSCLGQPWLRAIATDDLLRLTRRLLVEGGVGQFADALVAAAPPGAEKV
Acyl-homoserine lactone acylase PvdQ, sequence (Q9I194 217-762 limits assumed): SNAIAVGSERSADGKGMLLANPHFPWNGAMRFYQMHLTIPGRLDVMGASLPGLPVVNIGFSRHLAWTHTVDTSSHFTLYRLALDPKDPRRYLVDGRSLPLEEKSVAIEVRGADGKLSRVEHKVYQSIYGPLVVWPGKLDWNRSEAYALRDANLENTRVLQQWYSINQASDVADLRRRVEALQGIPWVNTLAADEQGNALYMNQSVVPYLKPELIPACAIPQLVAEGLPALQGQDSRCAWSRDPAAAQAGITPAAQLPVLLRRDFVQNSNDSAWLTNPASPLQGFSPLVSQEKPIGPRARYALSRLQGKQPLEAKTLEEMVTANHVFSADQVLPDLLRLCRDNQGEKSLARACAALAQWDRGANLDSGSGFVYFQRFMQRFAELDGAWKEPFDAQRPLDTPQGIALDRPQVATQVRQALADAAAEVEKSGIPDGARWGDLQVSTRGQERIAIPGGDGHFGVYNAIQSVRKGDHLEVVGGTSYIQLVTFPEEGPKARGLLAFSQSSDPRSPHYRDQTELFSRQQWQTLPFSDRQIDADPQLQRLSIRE

As usually defined, the AC50 is the concentration at which the activity in the assay is half-maximal. In the case of `CCCCCC1CC(COc2ccccc2)OC1=O` (stereo unspecified), the concentration at half-maximal activity (AC50) in assay [1] is 6.27 µM (active).
Usually EC50 stands for the concentration needed to bring the measured effect to its halfway point. `O=C1Nc2ccccc2C(O)(C(=O)NC2CC2)N1c1ccc(Cl)c(Cl)c1` (stereo unspecified): the EC50 in [2] is > 50 µM (not active).
In general, IC50 refers to the midpoint of a concentration-inhibition curve. `CN1CCN(c2ccccc2NC(=O)c2ccc(-c3cccc(Cl)c3)o2)CC1`: the IC50 in assay [3] and in assay [4] was > 66.6 µM (inactive) throughout.
For `Cc1cccc(-c2nnc(SCc3nc4ccccc4[nH]3)n2Cc2ccco2)c1`, the IC50 was 5.67 µM (active) in assay [5] and 22.5 µM (not active) in assay [7]. The EC50 in assay [6] was 1.19 µM (active).
In general, CC50 refers to the concentration giving 50% cytotoxicity. For `COc1ccc2c(c1)-c1nc(NC(=O)c3cccs3)sc1CC2`, the CC50 in assay [8] was 7.91 µM (active). The EC50 in assay [9] is 22 µM (active); in assay [10] it was 21.4 µM (active). For the same molecule, in assay [11], the concentration at half-maximal activity (AC50) is 6.23 µM (active). For the same molecule, in assay [12], the half-inhibitory concentration (IC50) was 26.8 µM (active).
For the molecule `CCCCN(C(=O)c1ccccc1Cl)c1nc(-c2ccc(OC)cc2)cs1`, the IC50 in [13] was > 66.6 µM (active). Besides, the CC50 is > 40 µM (active) in [14] and > 100 µM (active) in assay [15].
With `Cc1cc2ccccc2c(=O)n1CC(=O)NCC(=O)N1CCN(c2ccccc2)CC1`, the concentration giving a half-maximal response (EC50) in assay [2] is > 10 µM (not active).
